Assay [1] addresses Tyrosine-protein phosphatase non-receptor type 1 (Homo sapiens, UniProt P18031, V49A). Description: Inhibition of PTP1B V49A mutant.
Assay [2] concerns the target Tyrosine-protein phosphatase non-receptor type 1 (Homo sapiens, UniProt P18031, I219A). Description: Inhibition of PTP1B I219A mutant.
For assay [3], the target named is T1, Tyrosine-protein phosphatase non-receptor type 1 (Homo sapiens, UniProt P18031).
T1 sequence (P18031 whole entry): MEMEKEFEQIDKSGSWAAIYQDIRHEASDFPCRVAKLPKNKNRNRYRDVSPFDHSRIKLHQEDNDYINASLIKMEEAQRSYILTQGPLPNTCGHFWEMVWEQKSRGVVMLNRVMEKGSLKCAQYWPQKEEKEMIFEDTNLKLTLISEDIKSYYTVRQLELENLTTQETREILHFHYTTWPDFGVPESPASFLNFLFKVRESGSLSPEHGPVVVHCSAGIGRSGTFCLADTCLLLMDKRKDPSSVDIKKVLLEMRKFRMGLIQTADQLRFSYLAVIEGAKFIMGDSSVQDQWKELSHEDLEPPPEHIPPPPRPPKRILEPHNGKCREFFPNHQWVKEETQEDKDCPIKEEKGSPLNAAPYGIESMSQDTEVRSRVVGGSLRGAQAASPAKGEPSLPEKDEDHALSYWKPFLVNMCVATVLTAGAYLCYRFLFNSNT
The assay is described as follows: Inhibition of wild type PTP1B.

In assay [4] the test system is Tyrosine-protein phosphatase non-receptor type 1 (Homo sapiens), P18031 [UNDEFINED MUTATION]. The assay is described as follows: Selectivity for PTP1B I219A over wild type PTP1B.
The target of assay [5] is T2, Tyrosine-protein phosphatase non-receptor type 1 (Homo sapiens) (UniProt P18031).
T2 sequence (whole entry): T1 sequence (P18031 whole entry)
The assay is described as follows: Selectivity for PTP1B V49A over wild type PTP1B.

For assay [6], the target named is Tyrosine-protein phosphatase non-receptor type 2 (Homo sapiens, UniProt P17706, I220A). The assay is described as follows: Inhibition of TCPTP I220A mutant.
Sequence of Tyrosine-protein phosphatase non-receptor type 2 (Homo sapiens, UniProt P17706, I220A) (P17706 whole entry I220A): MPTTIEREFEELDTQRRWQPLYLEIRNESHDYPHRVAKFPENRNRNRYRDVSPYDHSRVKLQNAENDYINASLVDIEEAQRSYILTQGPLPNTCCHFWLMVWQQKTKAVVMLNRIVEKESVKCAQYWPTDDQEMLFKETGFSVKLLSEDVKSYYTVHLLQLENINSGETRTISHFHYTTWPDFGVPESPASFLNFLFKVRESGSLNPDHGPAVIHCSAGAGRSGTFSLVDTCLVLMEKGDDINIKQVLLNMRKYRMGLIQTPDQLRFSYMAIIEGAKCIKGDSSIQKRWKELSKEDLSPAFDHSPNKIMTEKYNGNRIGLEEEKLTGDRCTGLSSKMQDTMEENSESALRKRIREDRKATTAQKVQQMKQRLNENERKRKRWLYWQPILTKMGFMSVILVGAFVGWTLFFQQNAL
Assay [7] concerns the target T3, Tyrosine-protein phosphatase non-receptor type 2 (Homo sapiens, UniProt P17706).
T3 sequence (P17706 whole entry): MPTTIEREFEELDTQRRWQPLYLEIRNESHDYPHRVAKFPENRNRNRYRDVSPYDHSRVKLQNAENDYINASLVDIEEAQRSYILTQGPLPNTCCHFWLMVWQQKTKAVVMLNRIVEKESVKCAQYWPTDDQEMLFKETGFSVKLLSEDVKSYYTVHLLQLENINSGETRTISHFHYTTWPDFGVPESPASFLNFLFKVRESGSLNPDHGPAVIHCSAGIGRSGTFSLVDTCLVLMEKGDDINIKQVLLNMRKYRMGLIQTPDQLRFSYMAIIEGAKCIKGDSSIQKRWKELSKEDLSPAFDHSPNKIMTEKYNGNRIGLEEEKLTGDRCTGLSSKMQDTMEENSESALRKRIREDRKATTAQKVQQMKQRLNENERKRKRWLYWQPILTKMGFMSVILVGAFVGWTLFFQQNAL
Description: Inhibition of TCPTP.

Sequence of Tyrosine-protein phosphatase non-receptor type 1 (Homo sapiens, UniProt P18031, I219A) (P18031 whole entry I219A): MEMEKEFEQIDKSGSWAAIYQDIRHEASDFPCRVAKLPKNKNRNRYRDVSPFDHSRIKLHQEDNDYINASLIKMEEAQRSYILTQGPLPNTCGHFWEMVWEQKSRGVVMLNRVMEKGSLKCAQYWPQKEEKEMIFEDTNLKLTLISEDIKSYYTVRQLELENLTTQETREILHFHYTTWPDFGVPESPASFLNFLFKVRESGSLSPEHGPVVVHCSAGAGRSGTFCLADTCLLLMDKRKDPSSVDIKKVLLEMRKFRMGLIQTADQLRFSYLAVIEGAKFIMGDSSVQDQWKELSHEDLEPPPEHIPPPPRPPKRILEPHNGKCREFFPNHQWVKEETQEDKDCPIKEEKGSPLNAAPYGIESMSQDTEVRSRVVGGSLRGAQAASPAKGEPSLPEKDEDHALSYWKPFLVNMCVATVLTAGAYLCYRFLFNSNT
Sequence of Tyrosine-protein phosphatase non-receptor type 1 (Homo sapiens, UniProt P18031, V49A) (P18031 whole entry V49A): as the sequence (P18031 whole entry I219A) above, with V49A, A219I counted along it

On to `CC1(C)Cc2c(sc(NC(=O)C(=O)O)c2C(=O)O)C(C)(C)C1`, for which the Ki was 27 µM in assay [1], 10 µM in assay [2] and more than 300 µM in assay [3]. In addition, the Selectivity ratio in assay [4] was more than 30; in assay [5] it was more than 10.
Consider `O=C(O)C(=O)Nc1sc2c(c1C(=O)O)CCNC2`, for which the Ki in assay [2] came out at 0.23 µM; in assay [3], 6 µM; in assay [6], 710 nM; in assay [7], 10 µM.

(Values after ChEMBL document CHEMBL1145347, “A gatekeeper residue for inhibitor sensitization of protein tyrosine phosphatases” (Bioorg Med Chem Lett, 2006).)
